Assay results taken from US11130769B2 (Prelude Therapeutics Incorporated, priority 2018, dated 2021).

How the values were obtained:
H929 cells = assay: Cell viability assay (H929 10 FBS); type: cell-based; conditions: Homo sapiens, NCI-H929, 24 hours, read-out: H929_10FBS IC50
Summary of the method: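 ATP-based luminescence (CellTiter-Glo or ATPlite 1 Step, 30-60 min at RT) gauged viability of H929 myeloma cells after 24 h compound treatment at 37 °C. Cells plated at 4000 per well in 10% FBS RPMI 1640 supplemented with pyruvate, HEPES and glucose.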

MCL-1 = MCL-1 (Homo sapiens (Human), UniProt Q07820); assay: Cell free Mcl-1:Bim affinity assay (fluorescence polarization competition); type: binding; conditions: 15 nM MCL-1, 5 nM FITC-Bim, 1 hour at room temperature; class symbols; read-out: BIM_Ki
Sequence of MCL-1 (Q07820 whole entry): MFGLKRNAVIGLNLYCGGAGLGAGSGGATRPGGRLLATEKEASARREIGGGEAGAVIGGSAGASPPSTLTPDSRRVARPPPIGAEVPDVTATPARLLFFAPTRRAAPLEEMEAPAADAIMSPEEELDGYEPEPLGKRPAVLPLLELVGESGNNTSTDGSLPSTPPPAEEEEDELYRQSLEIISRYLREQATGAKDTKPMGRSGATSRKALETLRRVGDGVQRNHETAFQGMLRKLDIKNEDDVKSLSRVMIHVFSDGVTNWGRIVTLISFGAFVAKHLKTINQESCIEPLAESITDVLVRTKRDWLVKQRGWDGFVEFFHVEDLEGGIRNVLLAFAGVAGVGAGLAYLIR
Summary of the method: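 Fluorescence polarization competition: 10-point 3-fold compound dilutions displaced 5 nM FITC-Bim from 15 nM MCL-1 over 1 h at room temperature. Ki was derived from the fitted IC50 using the Nikolovska-Coleska equation, with percent inhibition normalized to DMSO and positive controls.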

Compound	IC50 (H929 cells)	Ki (MCL-1)
CNC(=O)O[C@H]1/C=C/COC2(CC2)C(=O)NS(=O)(=O)c2ccc3c(c2)N(C[C@@H]2CC[C@H]21)C[C@@]1(CCCc2cc(Cl)ccc21)CO3 [Example 227, [(3R,6R,7S,8E,22S)-6′-Chloro-12,12-ethylene-13,15,15-trioxo-spiro[11,20-dioxa-15-thia-1,14-diazatetracyclo[14.7.2.03,6.019,24]pentacosa-8,16,18,24-tetraene-22,1′-tetralin]-7-yl] N-methylcarbamate]	< 0.5 µM	< 0.001 µM
CCO[C@@H]1CCN(C(=O)O[C@H]2/C=C/COC3(CCC3)C(=O)NS(=O)(=O)c3ccc4c(c3)N(C[C@@H]3CC[C@H]32)C[C@@]2(CCCc3cc(Cl)ccc32)CO4)C1 [Example 228, [(3R,6R,7S,8E,22S)-6′-Chloro-12,12-(1,3-propylene)-13,15,15-trioxo-spiro[11,20-dioxa-15-thia-1,14-diazatetracyclo[14.7.2.03,6.019,24]pentacosa-8,16,18,24-tetraene-22,1′-tetralin]-7-yl] (3R)-3-ethoxypyrrolidine-1-carboxylate]	< 0.5 µM	< 0.001 µM
CN(C)C(=O)O[C@H]1/C=C/COC2(CCC2)C(=O)NS(=O)(=O)c2ccc3c(c2)N(C[C@@H]2CC[C@H]21)C[C@@]1(CCCc2cc(Cl)ccc21)CO3 [Example 231, [(3R,6R,7S,8E,22S)-7′-Chloro-12,12-(1,3-propylene)-13,15,15-trioxo-spiro[11,20-dioxa-15λ6-thia-1,14-diazatetracyclo[14.7.2.03,6.019,24]pentacosa-8,16,18,24-tetraene-22,4′-chromane]-7-yl] N,N-dimethyl-1-carboxylate]	< 0.5 µM	< 0.001 µM
CN(C)CCN(C)C(=O)O[C@H]1/C=C/COC2(CCC2)C(=O)NS(=O)(=O)c2ccc3c(c2)N(C[C@@H]2CC[C@H]21)C[C@@]1(CCCc2cc(Cl)ccc21)CO3 [Example 233, [(3R,6R,7S,8E,22S)-6′-Chloro-12,12-(1,3-propylene)-13,15,15-trioxo-spiro[11,20-dioxa-15-thia-1,14-diazatetracyclo[14.7.2.03,6.019,24]pentacosa-8,16(25),17,19(24)-tetraene-22,1′-tetralin]-7-yl] N-[2-(dimethylamino)ethyl]-N-methyl-carbamate]	< 0.5 µM	< 0.001 µM
CN(C(=O)O[C@H]1/C=C/COC2(CCC2)C(=O)NS(=O)(=O)c2ccc3c(c2)N(C[C@@H]2CC[C@H]21)C[C@@]1(CCCc2cc(Cl)ccc21)CO3)[C@@H]1CCOC1 [Example 234, [(3R,6R,7S,8E,22S)-6′-Chloro-12,12-(1,3-propylene)-13,15,15-trioxo-spiro[11,20-dioxa-15-thia-1,14-diazatetracyclo[14.7.2.03,6.019,24]pentacosa-8,16,18,24-tetraene-22,1′-tetralin]-7-yl] N-methyl-N-[(3R)-tetrahydrofuran-3-yl]carbamate]	< 0.5 µM	< 0.001 µM
CN(C(=O)O[C@H]1/C=C/COC2(CCC2)C(=O)NS(=O)(=O)c2ccc3c(c2)N(C[C@@H]2CC[C@H]21)C[C@@]1(CCCc2cc(Cl)ccc21)CO3)C1COC1 [Example 235, [(3R,6R,7S,8E,22S)-6′-Chloro-12,12-(1,3-propylene)-13,15,15-trioxo-spiro[11,20-dioxa-15-thia-1,14-diazatetracyclo[14.7.2.03,6.019,24]pentacosa-8,16,18,24-tetraene-22,1′-tetralin]-7-yl] N-methyl-N-(oxetan-3-yl)carbamate]	< 0.5 µM	< 0.001 µM
CN(C(=O)O[C@H]1/C=C/COC2(CCC2)C(=O)NS(=O)(=O)c2ccc3c(c2)N(C[C@@H]2CC[C@H]21)C[C@@]1(CCCc2cc(Cl)ccc21)CO3)C1CCOCC1 [Example 236, [(3R,6R,7S,8E,22S)-6′-Chloro-12,12-(1,3-propylene)-13,15,15-trioxo-spiro[11,20-dioxa-15-thia-1,14-diazatetracyclo[14.7.2.03,6.019,24]pentacosa-8,16,18,24-tetraene-22,1′-tetralin]-7-yl] N-methyl-N-tetrahydropyran-4-yl-carbamate]	< 0.5 µM	< 0.001 µM
O=C(N[C@H]1CCOC1)O[C@H]1/C=C/COC2(CCC2)C(=O)NS(=O)(=O)c2ccc3c(c2)N(C[C@@H]2CC[C@H]21)C[C@@]1(CCCc2cc(Cl)ccc21)CO3 [Example 237, [(3R,6R,7S,8E,22S)-6′-Chloro-12,12-(1,3-propylene)-13,15,15-trioxo-spiro[11,20-dioxa-15-thia-1,14-diazatetracyclo[14.7.2.03,6.019,24]pentacosa-8,16(25),17,19(24)-tetraene-22,1′-tetralin]-7-yl] N-[(3S)-tetrahydrofuran-3-yl]carbamate]	< 0.5 µM	< 0.001 µM

Continued, values first:

IC50 (H929 cells)	Ki (MCL-1)	Compound
< 0.5 µM	< 0.001 µM	CCN1C/C=C/[C@H](OC(=O)N2CCC(OC)CC2)[C@@H]2CC[C@H]2CN2C[C@@]3(CCCc4cc(Cl)ccc43)COc3ccc(cc32)S(=O)(=O)NC(=O)C1(C)C [Example 222, [(3R,6R,7S,8E,22S)-6′-Chloro-11-ethyl-12,12-dimethyl-13,15,15-trioxo-spiro[20-oxa-15-thia-1,11,14-triazatetracyclo[14.7.2.03,6.019,24]pentacosa-8,16,18,24-tetraene-22,1′-tetralin]-7-yl] 4-methoxypiperidine-1-carboxylate]
< 0.5 µM	< 0.001 µM	CCN1C/C=C/[C@H](OC(=O)N2CC(NC)C2)[C@@H]2CC[C@H]2CN2C[C@@]3(CCCc4cc(Cl)ccc43)COc3ccc(cc32)S(=O)(=O)NC(=O)C1(C)C [Example 223, [(3R,6R,7S,8E,22S)-6′-Chloro-11-ethyl-12,12-dimethyl-13,15,15-trioxo-spiro[20-oxa-15-thia-1,11,14-triazatetracyclo[14.7.2.03,6.019,24]pentacosa-8,16,18,24-tetraene-22,1′-tetralin]-7-yl] 3-(methylamino)azetidine-1-carboxylate]
< 0.5 µM	< 0.001 µM	CCN1C/C=C/[C@H](OC(=O)N2CC(N(C)C)C2)[C@@H]2CC[C@H]2CN2C[C@@]3(CCCc4cc(Cl)ccc43)COc3ccc(cc32)S(=O)(=O)NC(=O)C1(C)C [Example 224, [(3R,6R,7S,8E,22S)-6′-Chloro-11-ethyl-12,12-dimethyl-13,15,15-trioxo-spiro[20-oxa-15-thia-1,11,14-triazatetracyclo[14.7.2.03,6.019,24]pentacosa-8,16,18,24-tetraene-22,1′-tetralin]-7-yl] 3-(dimethylamino)azetidine-1-carboxylate]
< 0.5 µM	0.001 to 0.1 µM	CCN1C/C=C/[C@H](OC(=O)N2CCN(CCOC)CC2)[C@@H]2CC[C@H]2CN2C[C@@]3(CCCc4cc(Cl)ccc43)COc3ccc(cc32)S(=O)(=O)NC(=O)C1(C)C [Example 225, [(3R,6R,7S,8E,22S)-6′-Chloro-11-ethyl-12,12-dimethyl-13,15,15-trioxo-spiro[20-oxa-15-thia-1,11,14-triazatetracyclo[14.7.2.03,6.019,24]pentacosa-8,16,18,24-tetraene-22,1′-tetralin]-7-yl] 4-(2-methoxyethyl)piperazine-1-carboxylate]
< 0.5 µM	< 0.001 µM	CN(C(=O)O[C@H]1/C=C/CN(C)C(C)(C)C(=O)NS(=O)(=O)c2ccc3c(c2)N(C[C@@H]2CC[C@H]21)C[C@@]1(CCCc2cc(Cl)ccc21)CO3)[C@H]1CCOC1 [Example 226, [(3R,6R,7S,8E,22S)-6′-Chloro-11,12,12-trimethyl-13,15,15-trioxo-spiro[20-oxa-15-thia-1,11,14-triazatetracyclo[14.7.2.03,6.019,24]pentacosa-8,16,18,24-tetraene-22,1′-tetralin]-7-yl] N-methyl-N-[(3S)-tetrahydrofuran-3-yl]carbamate]
< 0.5 µM	< 0.001 µM	CO[C@@H]1CCN(C(=O)O[C@H]2/C=C/COC3(CCC3)C(=O)NS(=O)(=O)c3ccc4c(c3)N(C[C@@H]3CC[C@H]32)C[C@@]2(CCCc3cc(Cl)ccc32)CO4)C1 [Example 229, [(3R,6R,7S,8E,22S)-6′-Chloro-12,12-(1,3-propylene)-13,15,15-trioxo-spiro[11,20-dioxa-15-thia-1,14-diazatetracyclo[14.7.2.03,6.019,24]pentacosa-8,16,18,24-tetraene-22,1′-tetralin]-7-yl] (3S)-3-methoxypyrrolidine-1-carboxylate]
< 0.5 µM	< 0.001 µM	CCOC1CN(C(=O)O[C@H]2/C=C/COC3(CCC3)C(=O)NS(=O)(=O)c3ccc4c(c3)N(C[C@@H]3CC[C@H]32)C[C@@]2(CCCc3cc(Cl)ccc32)CO4)C1 [Example 230, [(3R,6R,7S,8E,22S)-6′-Chloro-12,12-(1,3-propylene)-13,15,15-trioxo-spiro[11,20-dioxa-15-thia-1,14-diazatetracyclo[14.7.2.03,6.019,24]pentacosa-8,16(25),17,19(24)-tetraene-22,1′-tetralin]-7-yl]-N,N-1,3-(2-ethoxy)propylene carbamate]
< 0.5 µM	< 0.001 µM	O=C(O[C@H]1/C=C/COC2(CCC2)C(=O)NS(=O)(=O)c2ccc3c(c2)N(C[C@@H]2CC[C@H]21)C[C@@]1(CCCc2cc(Cl)ccc21)CO3)N1CCC1 [Example 232, [(3R,6R,7S,8E,22S)-6′-Chloro-12,12-(1,3-propylene)-13,15,15-trioxo-spiro[11,20-dioxa-15-thia-1,14-diazatetracyclo[14.7.2.03,6.019,24]pentacosa-8,16(25),17,19(24)-tetraene-22,1′-tetralin]-7-yl] N,N-1,3-propylene carbamate]
